We go through one molecule from patent publication US20240006031A1, “PHYSIOLOGICALLY-BASED PHARM[…] MODEL” (CHA UNIVERSITY INDUSTRY-ACADEMIC COOPERATION FOUNDATION, priority 2020, published 2024).

Read-outs that look alike come from different tables or passages of the source.

Data set [1] in a line: PFHxS standard exposure calculation and risk assessment using human PBPK core model. The note with it: standard exposure 9.7 μg/kg/day. The text has this: The final parameters were used to calculate the correlation between the mean blood concentration at steady state and the external dose during repeated exposure to PFHxS. Specifically, using a human PBPK model constructed using human physiological parameters and substance-intrinsic parameters, a dose range was simulated and set, and the correlations described above were derived using regression analysis.
Next, the interspecies uncertainty factor (UFA) was applied to calculate the steady-state Caverage,human in humans. Specifically, the PFHxS PODhuman in the human body was calculated by using the correlation equation between the average blood concentration (Caverage) and the external dose during repeated exposure to PFHxS from which Caverage,human was derived. Next, the intraspecies uncertainty factor (UFH) was applied to the PODhuman to finalize the PFHxS standard exposure in the human body.
The PFHxS reference standard dose for external dose to PFHxS was used to derive the margin of safety (MoS) of PFHxS for men and women. Specifically, the blood PFHxS concentrations of men in Siheung (2.29 ng/mL) and women in Daegu (1.75 ng/mL), which are highly exposed to PFHxS, were substituted into the above correlation equation between the average blood concentration (Caverage) and the external dose to calculate the external dose.

Data set [2] is described as follows: Internal dose of PFHxS from rat model Caverage,rat at NOAEL with uncertainty factors. The note with it: versus internal dose 412.7 ng/mL. More on the design: species or system human. The protocol: First, to obtain the internal dose of PFHxS, the UFA was applied to the rat model by finding the Caverage,rat resulting from repeated exposure to NOAEL.
As a result, BEPOD was calculated as 4127.4 ng/mL.

The conditions of data set [3]: cited from earlier work.

`O=S(=O)(O)C(F)(F)C(F)(F)C(F)(F)C(F)(F)C(F)(F)C(F)(F)F` [PFHxS]: the “margin of safety (MoS)” value in data set [1] (men (Siheung, blood PFHxS 2.29 ng/mL)) is listed as 180.3; in data set [1] (women (Daegu, blood PFHxS 1.75 ng/mL)), 235.9. Further, the “actual blood levels in Koreans compared with calculated internal dose” value in data set [2] is “in the safe zone”. In addition, the “blood PFHxS concentration” value in data set [3] (men in Daegu) is 2.19 ng/mL; in data set [3] (men in Siheung) it was 2.29 ng/mL; in data set [3] (women in Daegu), 1.75 ng/mL; in data set [3] (women in Siheung), 1.35 ng/mL.
